Experimental data from patent US20050032904A1, “Composition and use of allylamine derivatives” (priority 2003, published 2005).

Key:
[1] = tested on: p53, p21/Cip1 and p27/Kip1 protein in COLO 205 tumor tissues; assay: Immunocytochemical staining of COLO 205 tumor tissues; assay type: in vivo, nude mouse; conditions: TB-treated vs DMSO-treated nude mice
COLO 205 cells [2] = assay: DNA fragmentation (DNA ladder) by electrophoresis of genomic DNA; assay type: cell-based, human
Procedure: Genomic DNAs extracted from TB-treated COLO 205 were examined by gel electrophoresis. […] In FIG. 9, the part of (A) refers to potentiation of ND-induced apoptosis by TB. […] DNA fragmentation was examined at 24 h after drug treatment. In the lanes 2 and 8, cells received mock treatment as controls. The symbols of “M” (in lanes 1 and 7), refer to “DNA size marker.” (B) average tumor volume of DMSO-treated vs. drug-treated nude mice (n=5). (C) tumor weight, (D) animal body weight, and (E) tumor/body weight ratio were measured at the end of experiment. Five samples were analyzed in each group, and values represent the mean±S.E. Comparisons were subjected to ANOVA followed by Fisher's least significant difference test. Significance was accepted at p<0.05. *TB-, ND-, and TB+ND-treated group different from DMSO-treated group. TB+ND-treated group different from TB- or ND-treated group.

[3] = tested on: p53 and p21/Cip1 protein in COLO 205 tumor; assay: Western blot of COLO 205 tumor; assay type: in vivo, nude mouse; conditions: tumor isolated at 6 weeks after TB treatment
Procedure: Western blot analyses show the levels of p53 and p21/Cip1 protein in COLO 205 tumor (C). COLO 205 tumors were isolated for protein extraction at 6 weeks after DMSO or TB treatment. Membranes were also probed with anti-GAPDH antibody to correct for differences in protein loading. […] Western blot analysis was performed as previously described (Chen R J, et. al., Toxicology & Applied Pharmacology 2000;169(2):132-41; Lee W S, et. al., Circulation Research 1998;82(8):845-51.). Immunodetection was carried by probing with proper dilutions of specific antibodies at room temperature for 2 h. Anti-p21/Cip1, anti-p27/Kip1, anti-p53, anti-GAPDH monoclonal antibodies (Santa Cruz, Inc. CA); anti-cyclin B1, D1, and D3, anti-cdk2 and cdk4, and PCNA monclonal antibodies (Transduction Laboratories, Lexington, Ky.) were used at a concentration of 1:1,000 dilution. Anti-cyclin A and E polyclonal antibodies (Transduction, San Diego, Calif.) were used at a concentration of 1:250 dilution. […] In each experiment, membranes were also probed with anti-GAPDH antibody to correct for differences in protein loading.

[4] = tested on: p53 binding to p21/Cip1 promoter DNA, nuclear extracts of COLO 205 cells; assay: Electrophoretic mobility shift assay (EMSA); assay type: cell-based, human; conditions: 60 μM TB
Procedure: Antisense or sense p53 was added to COLO 205 at a final concentration of 20 μM at 16 h before the cell was challenged with 10% FCS and 60 μM TB treatment for additional 15 h. […] The radio labeled DNA (4 ng, 100,000 cpm) was incubated with nuclear extract in 15 μl of binding buffer (10 mM Tris-HCl, pH 8.0, 1 mM EDTA, 10% glycerol, 200 mM NaCl, and 1 μg probe DNA) on ice for 5 min. The samples were electrophoresed in a 5% polyacrylamide gel, dried on Whatman 3M paper, and then exposed to Fuji x-ray films at -70° C.

HT 29 cells = assay: Flow cytometry (FACS) cell cycle analysis; assay type: cell-based, human
COLO 205 tumor tissues = assay: DNA fragmentation analysis / TdT nick end labeling in tumor tissues; assay type: in vivo, nude mouse; conditions: tumor from TB-treated mouse, 6 weeks
HT29 = assay: Determination of cell growth curve (cell counting); assay type: cell-based, human; conditions: 5 days
Procedure: (§1) The effect of TB on the growth of various human cancer cells […]. In FIG. 1, (A) COLO205, (B) HT29, (C) HepG2, (D) Hep3B, (E) HL60, and (F) normal human fibroblast cells were treated with various concentrations of TB (30 to 120 μM). Media with or without TB were renewed daily until cell counting. Three samples were analyzed in each group. Values represent mean±S.E. The cells were cultured for 5 days with or without TB (30-120 μM), and then the cells were harvested and counted. […] Human colon cancer, hepatoma, leukemia, and human normal fibroblast cells at a density of 1×10^4 were plated in 35-mm Petri dishes. TB was added at the indicated doses in 0.05% dimethyl-sulfoxide (DMSO). For control specimens, the same volume of the 0.05% DMSO without TB was added. Media with and without TB were changed daily until cell counting

HL60 = assay: Determination of cell growth curve (cell counting); assay type: cell-based, human; conditions: 5 days
Procedure: as §1

Hep3B = assay: Determination of cell growth curve (cell counting); assay type: cell-based, human; conditions: 5 days
Procedure: as §1

HepG2 = assay: Determination of cell growth curve (cell counting); assay type: cell-based, human; conditions: 5 days
Procedure: as §1

[5] = cited from earlier work
COLO 205 cells [6] = assay: Flow cytometry (FACS) cell cycle analysis; assay type: cell-based, human
Procedure: When they were returned to culture media containing 10% FCS and 0.05% DMSO (control) or 90 μM TB in 0.05% DMSO (which started them all on a new cell cycle) and, at various times thereafter, they were harvested for flow cytometry analysis. […] COLO 205 (A) and HT29 (B) cells were synchronized with 0.04% FCS for 24 h as described in Examples. After synchronization, the cells were then released into complete medium (10% FCS) containing 0.05% DMSO (left panel), or 90 μM TB in 0.05% DMSO (right panel). Percentage of cells in G0/G1, S, and G2/M phases of the cell cycle were determined using established CellFIT DNA analysis software. […] In Hep3B (D) and HL60 (E), TB caused the occurrence of apoptosis in a dose-dependent manner. […] FACS analysis of DNA content after 15 h release from quiescence by incubation in culture media supplemented with 10% FCS and various concentrations of TB in 0.05% DMSO. Percentage of cells in G0/G1, S, and G2/M phases of the cell cycle were determined using established CellFIT DNA analysis software.
The invention further tested whether TB can induce cell cycle arrest at a lower concentration with longer exposure. […] The COLO 205 cells were exposed to culture media supplemented with 10% FCS and various concentrations (1 and 5 μM) of TB in 0.05% DMSO for the indicated times. Media with and without TB were changed daily until flowcytometry analysis performed. Percentage of cells in G0/G1, S, and G2/M phases of the cell cycle were determined using established CellFIT DNA analysis software. Three samples were analyzed in each group, and values represent the mean±S.E.
The COLO 205 and HT 29 cells were synchronized as previously described. (Chen R J, et. al., Toxicology & Applied Pharmacology 2000;169(2):132-41.). After the cells had grown to 70-80% confluence, they were rendered quiescent by incubation for 24 h in RPMI 1640 containing 0.04% FCS, and challenged with 10% FCS. Then, after release using trypsin-EDTA, they were harvested at various times, washed twice with PBS/0.1% dextrose, and fixed in 70% ethanol at 4° C. Nuclear DNA was stained with a reagent containing propimdiamdiodine (50 DNase-free RNase (2 U/ml) and measured using a fluorescence-activated cell sorter (FACS). The population of nuclei in each phase of the cell cycle was determined using established CellFIT DNA analysis software (Becton Dickenson, San Jose, Calif.).

Hep G2 cells = assay: Flow cytometry (FACS) cell cycle analysis; assay type: cell-based, human; conditions: various concentrations of TB, 15 h after release from quiescence; dose-dependent
[7] = 90 μM TB after release from quiescence
[8] = various concentrations of TB, 15 h after release from quiescence, dose-dependent
[9] = TB 30-120 μM, media renewed daily, dose-dependent
[10] = TB concentration increased to 60 μM
[11] = daily oral 250 mg TB for 4 weeks, human study

## CN(C/C=C/C#CC(C)(C)C)Cc1cccc2ccccc12 [TB, 1-Naphthalenemethanamine, N-(6,6-dimethyl-2-hepten-4-ynyl)-N-methyl-, (E)-]
[1]
  p53, p21/Cip1 and p27/Kip1 immunoreactivities in tumor tissues: strongly induced
COLO 205 cells [2]; 10 μM TB alone, 24 h
  DNA ladder: does not induce DNA ladder
COLO 205 cells [2]; co-treatment with TB 10 μM and ND
  effect of TB on ND-induced apoptosis: enhanced the ND-induced apoptosis
[3]
  contents of p53 and p21/Cip1 in tumor: increased
[4]
  binding between p53 protein and p53 consensus binding site in p21/Cip1 promoter DNA probe: increased the binding
HT 29 cells; [7]
  accumulation of cells at the G0/G1 phase: > 90%
HT 29 cells; [8]
  G0/G1 arrest, dose effect: induced G0/G1 arrest
COLO 205 tumor tissues
  apoptosis in COLO 205 tumor (nick end labeling, DNA fragmentation): Induction of apoptosis
HT29; [9]
  cell number: decreased cell number
HT29; [10]
  cell growth at TB 60 μM: cell growth arrest or cell death
HL60; [9]
  cell number: decreased cell number
HL60; [10]
  cell growth at TB 60 μM: cell growth arrest or cell death
Hep3B; [9]
  cell number: decreased cell number
Hep3B; [10]
  cell growth at TB 60 μM: cell growth arrest or cell death
HepG2; [9]
  cell number: decreased cell number
HepG2; [10]
  cell growth at TB 60 μM: cell growth arrest or cell death
[5]; after an oral dose (250 mg)
  fraction of TB absorbed: approximately 70%
  maximum plasma concentrations: 0.5 to 1.5 µg/mL
  time to reach maximum plasma concentrations: ≤ 2 h
[5]; [11]
  plasma level of TB: 1.7 ± 0.77 µg/mL
  plasma level of TB (molar): 5.83 µM
COLO 205 cells [6]; 60 μM TB alone, 15 h
  increase of G0/G1 population: about 2.3 fold
COLO 205 cells [6]; [7]
  accumulation of cells at the G0/G1 phase: > 90%
COLO 205 cells [6]; TB 1 μM for 3 days
  G0/G1 cell cycle arrest at low concentration with longer exposure: arrested the COLO 205 cells at the G0/G1 phase
COLO 205 cells [6]; TB 1 μM for 4 days, media changed daily
  G0/G1 cell cycle arrest at low concentration with longer exposure: induce significant G0/G1 cell cycle arrest
COLO 205 cells [6]; [8]
  G0/G1 arrest, dose effect: induced G0/G1 arrest
Hep G2 cells
  G0/G1 arrest, dose effect: induced G0/G1 arrest
